Laboratory results: PubChem BioAssay (NCI)
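GI50 = concentration required for 50% inhibition of growth. At the TGI there is no net growth.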

How the values were obtained:
Assay in all cases: NCI tumour cell line growth inhibition, 384-well format
A498 renal = test system: A498 renal
ACHN renal = test system: ACHN renal
HCT-116 colon = test system: HCT-116 colon
HL-60(TB) leukemia = test system: HL-60(TB) leukemia
HOP-62 NSCLC = test system: HOP-62 NSCLC
K-562 leukemia = test system: K-562 leukemia
MALME-3M melanoma = test system: MALME-3M melanoma
MDA-MB-435 melanoma = test system: MDA-MB-435 melanoma
OVCAR-3 ovarian = test system: OVCAR-3 ovarian
RXF 393 renal = test system: RXF 393 renal
SF-268 CNS = test system: SF-268 CNS
SW-620 colon = test system: SW-620 colon
UACC-257 melanoma = test system: UACC-257 melanoma

SMILES: Nc1nc2cc(-c3ccc4ncc(C(=O)N5CCOCC5)n4c3)ccc2o1
- GI50 (A498 renal): 5.93 µM
- TGI (A498 renal): > 100 µM
- GI50 (ACHN renal): 8.58 µM
- TGI (ACHN renal): > 100 µM
- GI50 (HCT-116 colon): 5.23 µM
- TGI (HCT-116 colon): > 100 µM
- GI50 (HL-60(TB) leukemia): 5.36 µM
- TGI (HL-60(TB) leukemia): > 78 µM
- GI50 (HOP-62 NSCLC): > 26.4 µM
- TGI (HOP-62 NSCLC): > 100 µM
- GI50 (K-562 leukemia): > 86 µM
- TGI (K-562 leukemia): > 100 µM
- GI50 (MALME-3M melanoma): 2.78 µM
- TGI (MALME-3M melanoma): > 68.5 µM
- GI50 (MDA-MB-435 melanoma): 24.2 µM
- TGI (MDA-MB-435 melanoma): > 100 µM
- GI50 (OVCAR-3 ovarian): 7.73 µM
- TGI (OVCAR-3 ovarian): > 100 µM
- GI50 (RXF 393 renal): 40.2 µM
- TGI (RXF 393 renal): > 100 µM
- GI50 (SF-268 CNS): 35.1 µM
- TGI (SF-268 CNS): > 100 µM
- GI50 (SW-620 colon): 17.7 µM
- TGI (SW-620 colon): > 91.4 µM
- GI50 (UACC-257 melanoma): > 100 µM
- TGI (UACC-257 melanoma): > 100 µM
